# How the values were obtained:
# [1] = test system: ischemic cerebral edema caused by occlusion of middle cerebral artery; experiment: Effect on experimental ischemic cerebral edema (MCA occlusion, Tamura model); type: in vivo, male Wistar rats; settings: rats
# Experimental: Using 41 male Wistar rats weighing 250 to 350 g, model animals of ischemic cerebral edema caused by occlusion of middle cerebral artery (hereinafter referred to as "MCA") were prepared according to the method of Tamura et al. (Journal of Cerebral Blood Flow and Metabolism, 1, 53-69 (1981)).
# (§1) Peptide (II) obtained in Reference Example 1 was diluted with a physiological saline so that the peptide concentration became 100 μg/10 ml. The solution containing the peptide was continuously administered to eleven rats through the tail vein thereof in an amount of 10 ml per kg of body weight in 20 min so that the total dose of the administered peptide became 100 μg per kg of body weight.
# The administration was conducted 6 times according to the following program. The first administration was conducted 30 minutes after the occlusion of MCA. The second administration was conducted in the morning of the next day of the first administration (2nd day). The third administration was conducted after 6 hours from the second administration. The fourth administration was conducted in the morning of the next day of the third administration (3rd day). […]
# After one hour from the sixth administration, that is, 3 days after the rats had been subjected to occlusion of MCA, the rats were sacrificed. […] The water content of each of the hemispheres was measured.
# The water content of a brain tissue was calculated by the following formula: [formula] wherein: W1 : weight of the cerebral hemisphere (wet basis)
# W2 weight of the cerebral hemisphere (dry basis), which is measured after drying the wet cerebral hemisphere at 95° to 100° C. for 3 days.
# The water contents calculated were statistically analyzed by the T-test to determine whether or not there is a significant difference between the water content of each of the groups to which peptide (II), peptide (III) and glycerol were individually administered and the water content of the control group to which physiological saline was administered. […]
# [2] = test system: vasogenic cerebral edema caused by cold injury; experiment: Effect on experimental vasogenic cerebral edema (cold injury); type: in vivo, male Crj:CD (SD) rats; settings: rats
# Experimental: Using 42 male Crj:CD (SD) rats weighing 300 to 400 g, model animals of vasogenic cerebral edema caused by cold injury were prepared according to the method of Naruse et al. (Brain and Nerve, 33 (6): 569-575 (1981)). (Administration method)
# as §1, with “[…]” for “μg/10”, “weight” for “weight in 20 min”, “weight, to thereby obtain a peptide (II)-administeredgroup.” for “weight.”
# Peptide (III) was administered to eight rats in the same manner as described above except that peptide (III) was used instead of peptide (II), to thereby obtain a peptide (III)-administered group.
# As a control (solvent), 3 ml per kg of body weight of the physiological saline was administered to eleven rats in substantially the same manner as mentioned above, to thereby obtain a physiological saline-administered group.
# As a control for the peptide, an aqueous 10% w/v glycerol solution containing 5% w/v fructose and 0.9% w/v sodium chloride was administered to twelve rats so that the total volume of the administered solution became 10 ml per kg of body weight, to thereby obtain a glycerol-administered group.
# The administration of each of the peptide (II) solution, peptide (III) solution and physiological saline was started one hour before the making of cold injury and completed in 90 minutes. On the other hand, the administration of the glycerol solution was started 23 hours after the making of cold injury and completed in 30 minutes in accordance with the ordinary clinical method, so that the total volume of the administered glycerol solution became 10 ml/kg of body weight.
# 24 hours after the rats had been subjected to cold injury, rats were sacrificed under ether anesthesia. […]
# The water content of each of the hemispheres was measured in substantially the same manner as in Example 1. […]
# [3] = test system: vasogenic cerebral edema caused by cold injury; experiment: Effect on experimental vasogenic cerebral edema (investigation of administration time); type: in vivo, male Crj:CD (SD) rats; settings: for Water content of injured cerebral hemisphere (the mean ± standard error): peptide 100 μg/kg, glycerol solution 10 ml/kg, 24 hours after injury
# Experimental: Using 212 male Crj:CD (SD) rats weighing 300 to 400 g, model animals of vasogenic cerebral edema caused by cold injury were prepared according to the method of Naruse et al. (Brain and Nerve, 33 (6): 569-575 (1981).
# as §1, with “[…]” for “100 μg/10”, “to a predetermined number of” for “to eleven”, “of 3” for “of 10”, “in 90” for “in 20”, “weight. Thus, there were obtained six peptide (II)-administered groups.” for “weight.”
# As a control (solvent), 3 ml per kg of body, weight of the physiological saline was administered to a predetermined number of rats in substantially the same manner as mentioned above, to thereby obtain six physiological saline-administered groups.
# As a control for the peptide, an aqueous 10% w/v glycerol solution containing 5% w/v fructose and 0.9% w/v sodium chloride was administered to a predetermined number of rats in substantially the same manner as mentioned above so that the total volume of the administered solution became 10 ml per kg of body weight, to thereby obtain six glycerol-administered groups.
# 24 hours after the rats were subjected to injury, rats were exsanguinated under ether anesthesia to kill them. Then, cerebra were extracted from the killed rats and each of the cerebra was individually divided into two cerebral hemispheres, namely, a hemisphere having ischemic part and a hemisphere having no ischemic part. The water content of each of the hemispheres was measured in substantially the same manner as in Example 1. In Table 3, the mean and the standard error of the water content of a brain tissue are shown together with the number of rats (n) subjected to experiment in each group.
# [4] = 3 days after MCA occlusion, peptide 100 μg/kg (glycerol 1 g/kg) tail vein, 6 administrations
# [5] = 24 hours after cold injury, peptide 100 μg/kg tail vein started one hour before injury, 90 min, glycerol solution 10 ml/kg started 23 hours after injury
smiles,measurement,setting,value
"OCC(O)CO [Glycerol, glycerol]","Water content of brain tissue (the mean ± standard error), hemisphere having ischemic part",[1]; [4],79.34 ± 0.15
same,"Water content of brain tissue (the mean ± standard error), hemisphere having no ischemic part",[1]; [4],78.51 ± 0.14
same,"increase in water content of the cerebral hemisphere having ischemic part, compared to physiological saline-administered group","[1]; MCA occlusion, T-test",significantly inhibited
same,"Water content of brain tissue (the mean ± standard error), injured cerebral hemisphere",[2]; [5],80.65 ± 0.23
same,"Water content of brain tissue (the mean ± standard error), not injured cerebral hemisphere",[2]; [5],79.62 ± 0.19
same,"increase in water content of the injured cerebral hemisphere, compared to physiological saline-administered group",[2]; cold injury,not so markedly inhibited
same,"increase in water content of a cerebral hemisphere, compared to physiological saline-administered groups",[3]; administered just after making the cold injury,significantly inhibited
same,Water content of injured cerebral hemisphere (the mean ± standard error),[3]; administration 3 hours after the making of cold injury,81.08 ± 0.20
same,Water content of injured cerebral hemisphere (the mean ± standard error),[3]; administration 6 hours after the making of cold injury,81.24 ± 0.19
same,Water content of injured cerebral hemisphere (the mean ± standard error),[3]; administration 22 hours after the making of cold injury,81.05 ± 0.17
same,Water content of injured cerebral hemisphere (the mean ± standard error),[3]; administration during the making of cold injury,80.79 ± 0.10
same,Water content of injured cerebral hemisphere (the mean ± standard error),[3]; administration just after the making of cold injury,80.77 ± 0.14
same,Water content of injured cerebral hemisphere (the mean ± standard error),[3]; administration just before the making of cold injury,81.22 ± 0.20
same,"increase in water content of the injured cerebral hemisphere, compared to physiological saline-administered groups",[3]; remaining administration times (all except just after the cold injury),not significantly inhibited
